Laboratory results as given in US9993529B2, “Stable formulations of a hyaluronan-degrading enzyme” (Halozyme, Inc., priority 2011, dated 2018).
Like-named read-outs stand apart in the source and are kept apart here. Residues, ends and D or L forms follow the SMILES beside them.

Tests used:
rHuPH20 = target: T1, rHuPH20 (Homo sapiens, UniProt P38567); conditions: for Effect on rHuPH20 enzymatic activity: stabilizer screen in rHuPH20/insulin formulation ([…] m-cresol, 0.2% phenol, pH 7.3±0.1), 30° C. about one week, semi-quantitative in comparison with NaCl; for rHuPH20 activity: 48 hours
T1 sequence (P38567 36-482): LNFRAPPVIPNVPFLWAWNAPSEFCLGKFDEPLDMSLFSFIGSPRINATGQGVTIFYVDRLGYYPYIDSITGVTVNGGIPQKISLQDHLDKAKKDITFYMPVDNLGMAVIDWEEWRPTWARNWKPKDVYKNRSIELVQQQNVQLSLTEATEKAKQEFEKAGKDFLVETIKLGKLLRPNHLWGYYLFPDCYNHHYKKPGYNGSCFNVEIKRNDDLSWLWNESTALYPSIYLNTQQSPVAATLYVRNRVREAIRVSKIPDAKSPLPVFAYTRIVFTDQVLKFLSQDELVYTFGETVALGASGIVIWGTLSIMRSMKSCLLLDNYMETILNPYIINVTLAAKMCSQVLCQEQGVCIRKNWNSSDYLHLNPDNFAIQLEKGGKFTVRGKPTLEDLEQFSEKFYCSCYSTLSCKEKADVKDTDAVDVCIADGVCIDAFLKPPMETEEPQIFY
Description: The activity of a hyaluronan degrading enzyme can be assessed using methods well known in the art. […] A Hyaluronidase Reference Standard (USP) or National Formulary (NF) Standard Hyaluronidase solution can be used in an assay to ascertain the activity, in units, of any hyaluronidase. In one example, activity is measured using a microturbidity assay. […] The turbidity of the resulting sample is measured at 640 nm after an additional development period.

SEC, % main rHuPH20 peak = assay type: physicochemical
Description: SEC was performed using the following conditions: 1× Phosphate Buffered Saline (PBS), a Toso BioScience G2000 SWXL column, and a flow rate set at 1 mL/min. Data were collected as described above and means were reported and entered into the design table following the sample sequence provided by the DOE software.

[1] = RP-HPLC insulin apparent solubility / percent recovery (content)
Description: Apparent solubility was measured as the percent insulin recovery as compared to the initial formulations/conditions.
Samples were prepared by withdrawing 100 μL from each vial at every time point and centrifuging prior to loading. Samples were stored in an autosampler at 4° C. prior to use, and were considered stable for 3 days after preparation. All samples were tested in duplicate.
For insulin, 20 μL was injected for each HPLC run.
To determine the apparent solubility, the peak area of insulin/insulin analog main peak and desamido peak were integrated and combined together to calculate the percentage relative to the standards. […] The data were processed using Design-Expert® 7.0 (StatEase) and the “historical data” feature. Insulin percent purity was expressed as the percent of main insulin versus all insulin species.

[2] = RP-HPLC rHuPH20 oxidation peaks (ox-1, ox-2); assay type: physicochemical; conditions: 0.02% surfactant, 30° C., 72 hours
Text: The stability of hyaluronan degrading enzymes in a composition, such as in the co-formulations provided herein, also can be assessed using other methods and assays known in the art. […] Percent recovery is the relative percentage of the hyaluronidase in the co-formulation over time and at various storage conditions, as compared to a reference sample. […] An increase in particle size and a decrease in the melting temperature indicates denaturation and subsequent aggregation of the hyaluronidase. […] Other methods known to one of skill in the art that can be used to determine the stability of the hyaluronidase in the co-formulations provided herein, include polyacrylamide gel electrophoresis (PAGE), immunoblotting, nuclear magnetic resonance (NMR) spectroscopy, mass spectrometry, circular dichroism (CD) and dye-based fluorescence assays.
The formulations varied in the surfactant and surfactant concentration and the buffer (either histidine or phosphate).
Methionine oxidation can be prevented by addition of free methionine as a scavenger to react with potential oxidative compounds.

[3] = Temperature effect on pH and NaOH titration of lysyl lysine buffer; assay type: physicochemical; conditions: Ex27 rHuPH20/insulin glulisine formulations
[4] = in vivo; cited from earlier work
[5] = 35° C., 1 day, concentrations of Table 21
[6] = stabilizer screen in rHuPH20/insulin formulation, RP-HPLC on samples stored at 5° C., semi-quantitative in comparison with NaCl
[7] = 4° C., concentrations of Table 22

**Q.** With O[C@H]1[C@H](O)[C@@H](O)[C@H](O)[C@@H](O)[C@H]1O [Inositol] as the compound, how does the “Effect on rHuPH20 enzymatic activity” value (rHuPH20) read?
**A.** Its value is “No effect”.

**Q.** Which “Effect on rHuPH20 enzymatic activity” value (rHuPH20) does the source give for NCC(=O)NCC(=O)O [Gly-Gly] (H-Gly-Gly-OH) here?
**A.** The value was “No effect”.

**Q.** Which “Effect on rHuPH20 enzymatic activity” value (rHuPH20) does the source give for OC[C@@H](O)[C@@H](O)[C@H](O)[C@@H](O)CO [sorbitol] here?
**A.** The value was “No effect”.

**Q.** Which “Effect on rHuPH20 enzymatic activity” value (rHuPH20) does the source give for OC[C@H]1O[C@@](CO)(O[C@H]2O[C@H](CO)[C@@H](O)[C@H](O)[C@H]2O)[C@@H](O)[C@@H]1O [Sucrose] here?
**A.** Its value is “No effect”.

**Q.** For Benzalkonium Chloride, which “% Main rHuPH20 peak by non-denaturing SEC” value (SEC, % main rHuPH20 peak; [5]) is on record?
**A.** The value was “<LOD”.

**Q.** Which “Effect on insulin solubility” value [1, 6] does the source give for NCCCC[C@H](N)C(=O)O [Lysine] here?
**A.** Its value is “No effect”.

**Q.** And the “Effect on rHuPH20 enzymatic activity” value (rHuPH20)?
**A.** The value was “No effect”.

**Q.** For OC[C@H]1O[C@H](O[C@H]2O[C@H](CO)[C@@H](O)[C@H](O)[C@H]2O)[C@H](O)[C@@H](O)[C@@H]1O [Trehalose], which “Effect on rHuPH20 enzymatic activity” value (rHuPH20) is on record?
**A.** The value was “No effect”.

**Q.** What does the source list for Polysorbate 80?
**A.** % of Oxidation Peak 1 of rHuPH20 ([2]; Methionine 0 mM): 4.01%; % of Oxidation Peak 1 of rHuPH20 ([2]; Methionine 2 mM): 3.50%; % of Oxidation Peak 1 of rHuPH20 ([2]; Methionine 10 mM): 3.44%; % of Oxidation Peak 1 of rHuPH20 ([2]; Methionine 50 mM): 3.34%

**Q.** For C[N+](C)(C)[O-] [Trimethylamine oxide (TMAO)], which “Effect on insulin solubility” value [1, 6] is on record?
**A.** The value was “No effect”.

**Q.** And the “Effect on rHuPH20 enzymatic activity” value (rHuPH20)?
**A.** Its value is “No effect”.

**Q.** Which “Effect on rHuPH20 enzymatic activity” value (rHuPH20) does the source give for O=C(O)CCCc1ccccc1 [Phenyl butyric acid] here?
**A.** Its value is “No effect”.

**Q.** For Cl.Cl.NCCCCC(N)C(=O)NC(CCCCN)C(=O)O (stereo not drawn) [Lys-Lys, H-Lys-Lys-OH HCl], which “temperature effect (dpH/dT)” value [3] is on record?
**A.** The value was −0.033 U/° C.

**Q.** And the “Effect on insulin solubility” value [1, 6]?
**A.** The value was “Reduced solubility”.

**Q.** What about the “Effect on insulin solubility” value ([1]; stabilizer screen, 5° C.) of the same compound?
**A.** The value was “caused severe precipitation of insulin”.

**Q.** What about the “Lys-Lys concentration sufficient to improve rHuPH20 stability” value (rHuPH20; Ex24, 40° C.) of the same compound?
**A.** The value was 10 mM.

**Q.** What about the “Effect on rHuPH20 enzymatic activity” value (rHuPH20) of the same compound?
**A.** Its value is “Strong stabilizer”.

**Q.** What about the “stabilization of rHuPH20 compared with NaCl” value (rHuPH20; stabilizer screen, […] m-cresol, 0.2% phenol, 30° C., about one week) of the same compound?
**A.** Its value is “stabilized rHuPH20 more than NaCl”.

**Q.** Which results are given for Polysorbate 20?
**A.** % of Oxidation Peak 1 of rHuPH20 ([2]; Methionine 0 mM): 4.01%; % of Oxidation Peak 1 of rHuPH20 ([2]; Methionine 2 mM): 3.43%; % of Oxidation Peak 1 of rHuPH20 ([2]; Methionine 10 mM): 3.37%; % of Oxidation Peak 1 of rHuPH20 ([2]; Methionine 50 mM): 3.38%

**Q.** For OCCCCCl [4-Chloro-1-butanol], which “% Main rHuPH20 peak by non-denaturing SEC” value (SEC, % main rHuPH20 peak; [5]) is on record?
**A.** The value was “<LOD”.

**Q.** Which “Effect on rHuPH20 enzymatic activity” value (rHuPH20) does the source give for O=C([O-])c1ccccc1.[Na+] [Sodium Benzoate] here?
**A.** Its value is “No effect”.

**Q.** What does the source list for NC(CO)(CO)CO [Tris (100 mM)]?
**A.** Effect on insulin solubility [1]: No effect; Effect on rHuPH20 enzymatic activity (rHuPH20): No effect

**Q.** Which “% Main rHuPH20 peak by non-denaturing SEC” value (SEC, % main rHuPH20 peak; [7]) does the source give for COC(=O)c1ccc(O)cc1 [methylparaben] here?
**A.** Its value is 100.00%.

**Q.** And the rHuPH20 activity (rHuPH20; 4° C.)?
**A.** Its rHuPH20 activity is 10,380.

**Q.** What about the rHuPH20 activity (rHuPH20; 35° C.) of the same compound?
**A.** Its rHuPH20 activity is 12,660.

**Q.** What about the “Enzymatic Activity of rHuPH20” value (rHuPH20; preservative 0.05 %, 1 Month, 25° C., insulin/rHuPH20) of the same compound?
**A.** Its value is 2061 U/mL.

**Q.** What about the “Enzymatic Activity of rHuPH20” value (rHuPH20; preservative 0.05 %, 1 Week, 35° C.) of the same compound?
**A.** Its value is 1058^2 U/mL.

**Q.** What about the “Enzymatic Activity of rHuPH20” value (rHuPH20; preservative 0.05 %, 2 Weeks, 35° C.) of the same compound?
**A.** The value was 1018^2 U/mL.

**Q.** What about the “Enzymatic Activity of rHuPH20” value (rHuPH20; preservative 0.1 %, 1 Month, 25° C.) of the same compound?
**A.** Its value is 1919 U/mL.

**Q.** And the “Enzymatic Activity of rHuPH20” value (rHuPH20; preservative 0.1 %, 1 Week, 35° C.)?
**A.** The value was 2085 U/mL.

**Q.** And the “Enzymatic Activity of rHuPH20” value (rHuPH20; preservative 0.1 %, 2 Weeks, 35° C.)?
**A.** The value was 1968 U/mL.

**Q.** What about the “Enzymatic Activity of rHuPH20” value (rHuPH20; preservative 0.2 %, 1 Month, 25° C.) of the same compound?
**A.** The value was 2196 U/mL.

**Q.** And the “Enzymatic Activity of rHuPH20” value (rHuPH20; preservative 0.2 %, 1 Week, 35° C.)?
**A.** Its value is 1927 U/mL.

**Q.** And the “Enzymatic Activity of rHuPH20” value (rHuPH20; preservative 0.2 %, 2 Weeks, 35° C.)?
**A.** The value was 1590 U/mL.

**Q.** And the “Enzymatic Activity of rHuPH20” value (rHuPH20; preservative 0.3 %, 1 Month, 25° C.)?
**A.** Its value is 2049 U/mL.

**Q.** What about the “Enzymatic Activity of rHuPH20” value (rHuPH20; preservative 0.3 %, 2 Weeks, 35° C.) of the same compound?
**A.** The value was 447 U/mL.

**Q.** Which “Effect on rHuPH20 enzymatic activity” value (rHuPH20) does the source give for OC[C@@H](O)[C@@H](O)[C@H](O)[C@H](O)CO [Mannitol] here?
**A.** The value was “No effect”.

**Q.** With glargine: long-lasting insulin analog as the compound, how does the Duration [4] read?
**A.** Its Duration is 28 h.

**Q.** Which Duration [4] does the source give for detemir: long-lasting insulin analog here?
**A.** The Duration was 28 h.

**Q.** Which “% Main rHuPH20 peak by non-denaturing SEC” value (SEC, % main rHuPH20 peak; [7]) does the source give for Cc1cccc(O)c1 [m-cresol] here?
**A.** Its value is 100.00%.

**Q.** And the rHuPH20 activity (rHuPH20; 35° C.)?
**A.** The rHuPH20 activity was “<LOQ”.

**Q.** With NC(=O)CC[C@H](N)C(=O)O [Glutamine] as the compound, how does the “Effect on insulin solubility” value [1, 6] read?
**A.** The value was “No effect”.

**Q.** What about the “Effect on rHuPH20 enzymatic activity” value (rHuPH20) of the same compound?
**A.** The value was “No effect”.

**Q.** For C[N+](C)(C)CC(=O)O [Betaine], which “Effect on insulin solubility” value [1, 6] is on record?
**A.** Its value is “No effect”.

**Q.** What about the “Effect on rHuPH20 enzymatic activity” value (rHuPH20) of the same compound?
**A.** The value was “No effect”.

**Q.** With N[C@@H](Cc1ccccc1)C(=O)O [L-Phenylalanine] as the compound, how does the “% Main rHuPH20 peak by non-denaturing SEC” value (SEC, % main rHuPH20 peak; [7]) read?
**A.** Its value is 100.00%.

**Q.** What does the source list for CSCC[C@H](N)C(=O)O [methionine]?
**A.** Effect on insulin solubility [1, 6]: No effect; Effect on rHuPH20 enzymatic activity (rHuPH20): No effect

**Q.** Which results are given for OCC(O)CO [glycerol]?
**A.** Effect on insulin solubility [1]: No/slight effect;; Effect on rHuPH20 enzymatic activity (rHuPH20): No effect
